From patent US9288993B2, “Copper resistant, fengycin-producing Bacillus mojavensis strain for controlling vegetable pathogens, its use and compositions containing it” (Szegedi Tudományegyetem, priority 2011, dated 2016)
Read-outs that look alike come from different tables or passages of the source.

Experiments:
Phytophthora infestans = conditions: 100 ppm copper
plant pathogen fungi = test: Fengycin concentration of diluted culture inhibiting plant pathogen fungi; type: cell-based; conditions: culture in glutaminic acid/glucose solution diluted 10-20 times

Which results are given for `O=S(=O)([O-])[O-].[Cu+2]` [copper, copper-sulphate]?
growth of Phytophthora infestans strains (Phytophthora infestans): did not show growth anymore; growth of P. syringae strains (P. syringae; 200 ppm copper): all increased; growth of P. syringae strains (P. syringae; 400 ppm copper): none of them

With fengycin as the compound, how does the “fengycin concentration which achieves a complete inhibition of the majority of the plant pathogen fungi” value (plant pathogen fungi) read?
Its value is 10 to 12 mg/L.
